# System: inflammation induced by methyl nicotinate, inner part of the upper arm
# Test: Anti-inflammatory effect test (anti-inflammation assay), chromameter "a" value
# Type: in vivo, human
# Protocol: The anti-inflammatory effect of the natural cell control carrier comprising 3:1 (wt/wt) water-soluble chitosan and elecampane extract according to the present invention was tested as follows. Twenty healthy male and female subjects with no experience of drug hypersensitivity or drug side effect were selected. Methyl nicotinate was used as an inflammation-inducing material. […] Firstly, the initial “a” value of the inner part of the upper arm was determined with a chromameter (Minolta, CR-300). Then, 1.0% aqueous solution of said composition and 0.1% indometacin aqueous solution were closely patched at the test part for 4 hr. After removing the patch, the test part was washed with pure water. After waiting for 1 hr for the temporary inflammation reaction to disappear, “a” value was measured again with the chromameter. After dropping 80 μL of methyl nicotinate diluted to 3 mM with pure water in a filter paper disk with 1 cm of diameter, it was applied to each test part for 1-2 min. After removing the filter paper disk, each test part was washed sufficiently with pure water. After 30 min, “a” value was measured with the chromameter. The anti-inflammatory effect of the natural cell control carrier according to the present invention, indometacin and methyl nicotinate was calculated from the “a” values.
smiles,measurement,setting,value
COc1ccc2c(c1)c(CC(=O)O)c(C)n2C(=O)c1ccc(Cl)cc1 [indometacin],Anti-Inflammatory Effect (%),"calculated from ""a"" values, 1.0% carrier or 0.1% indometacin aqueous solution",41.14%
same,"""a"" Value (n = 20)","chromameter, 30 min after 3 mM methyl nicotinate, 4 hr patch pre-treatment (1.0% carrier or 0.1% indometacin aqueous solution)",6.38

# Reference: patent US6521268B2, “Antibacterial and anti-inflammatory compositions with Inula helenium L. extract and water soluble chitosan” (Jakwang Co., Ltd., priority 2001, dated 2003)
